Patent US20050034187A1, “Modified tet-inducible system for regulation of gene expression in plants” (priority 2000, published 2005)

Experiments:
[1] = tested on: wild type tet Receptor and TripleX-driven GUS gene (pAC489/pAC499 double transformants); test: Seed germination test: induction of GUS gene in seedlings; assay type: in vivo, tobacco; conditions: concentration curve, FIG. 19
[2] = tested on: TripleX/GUS (pAC499) repressed by nTR under control of different promoters; test: Leaf disk induction experiment, GUS assay (double transformants); assay type: cell-based, tobacco; conditions: Doxy 5 mg/l, leaf disks, FIG. 2
Excerpt: FIG. 2—Induction of GUS Gene in Leaves Expressing NLS-tet Receptor Under Control of Different Promoters. Tobacco plants. already expressing pAC499 (TripleX/GUS) were transformed with […] pCAMBIA-based Agro cassettes carrying NPTII marker gene and nTR under control of 35S, 2×35S, A. thaliana HPPD, A. thaliana AHAS, A. thaliana Actin and (OCS)3MAS promoters (pACAG076, 077, 078, 079, 109 and 084), as well as pAC489 (35S/WtTR) to yield a number of transgenic lines. This collection of tobacco plants was tested in a preliminary induction experiment performed on leaf disks: 5-10 mm leaf disks were excised from plants and put into six- or twelve-well plates with liquid MS medium and with or without Doxy 5 mg/l at 5 mg/l. GUS assays were performed with the tissues 5 days later. Each bar represents one sample; numbers above the bars represent magnitude of induction.
FIG. 3—Induction of GUS Gene In Tobacco Leaves Expressing nTR Under Control of Different Promoters. […]
Evaluation of tet inducible system in plant tissues. […] These plates were cultivated in dark on shaker at 90 rpm for 5 days (three weeks for analysis of induction of herbicide resistance) and then used in assays or evaluated visually. […] Three weeks later the induction of regeneration from these disks was evaluated.

[3] = tested on: tet-inducible luciferase cassettes with (OCS)3MAS/nTR; test: Leaf disk induction assay, luciferase; assay type: cell-based, tobacco; conditions: for maximum magnitude of induction (luciferase): FIGS. 14 and 15; for highest induction in some lines (luciferase) / average induction of the reporter (luciferase): doxycycline 5 mg/l
Experimental: FIG. 9—Doxycycline-Mediated Induction of Expression of Luciferase from (OCS)3triplexmin Promoter in Plants is Stronger than TripleX. This experiment was performed in order to test the performance of OCS elements-modified TripleX promoter on the whole plant level. Transgenic tobacco plants carrying (OCS)3MAS/nTR, NPTII, and either of (OCS)3TripleXmin/LUC or TripleX/LUC cassettes were tested in leaf disk induction assays: 5-10 mm leaf disks were excised from plants and put into six- or twelve-well plates with liquid MS medium and with or without Doxy 5 mg/l at 5 mg/l. Luciferase assays were performed with the tissues 5 days later. Each bar represents one sample; numbers above the bars represent magnitude of induction.
FIG. 10—Doxycycline-Mediated Induction of Expression of Luci erase from (OCS)3triplexmin Promoter in Plants is Stronger than TripleX. […] 5-10 mm leaf disks and pieces of roots were excised from plants and put into six- or twelve-well plates with liquid MS medium and with or without Doxy 5 mg/l at 5 mg/l. Luciferase assays were performed with the tissues 5 days later. Each bar represents an average of three samples; numbers above the bars represent magnitude of induction.
FIG. 13—Doxycycline-Mediated Induction of Expression of Luciferase in Inducible Cassettes With or Without One or More MAR Elements. This experiment was performed in order to test the effect of placing inducible luciferase gene between one or more MAR elements. Tobacco plants carrying TripleX/LUC cassette placed between one or more MAR elements, (OCS)3MAS/nTR and NPTII genes (pACAG073 and pACAG081) as well as the reference cassette without one or more MAR elements (pACAG085) were used as donors of 5-10 mm leaf disks which were cultivated in six- or twelve-well plates with liquid MS medium with or without doxycycline 5 mg/l for five days. Samples were assayed for luciferase activity. Each bar represents one sample; numbers above the bars represent magnitude of induction.
FIG. 14—Doxycycline-Mediated Induction of Luciferase in Leaves Carrying Inducible Cassettes With or Without One or More MAR Elements. This experiment was performed in order to test the effect of placing inducible luciferase gene between one or more MAR elements. […] 5-10 mm leaf disks and pieces of roots were excised from plants and put into six- or twelve-well plates with liquid MS medium and with or without Doxy 5 mg/l at 5 mg/l. Luciferase assays were performed with the tissues 5 days later. Each bar represents an average of three samples; numbers above the bars represent magnitude of induction.
Evaluation of tet inducible system in plant tissues. 5-10 mm leaf disks were excised from plants and put into six- or twelve-well plates with liquid MS medium and with or without a tet analog at 5 mg/l. When transgenic plants carried cassettes for induction of herbicide resistance, the medium was supplemented with PURSUIT® at concentration of 1 μM or higher. These plates were cultivated in dark on shaker at 90 rpm for 5 days (three weeks for analysis of induction of herbicide resistance) and then used in assays or evaluated visually. Another test was designed for evaluation of inducible herbicide resistance. In this test leaf disks were placed on MS agar supplemented with. 1 mg/l of BAP and PURSUIT® at concentration of 1 μM or higher either alone or with a tet analog at 5 mg/l. Three weeks later the induction of regeneration from these disks was evaluated.

## C[C@H]1c2cccc(O)c2C(=O)C2=C(O)[C@]3(O)C(=O)C(C(N)=O)=C(O)[C@@H](N(C)C)[C@@H]3[C@@H](O)[C@@H]21 [doxycycline]
[1]
  threshold concentration at which noticeable induction occurred: 0.1 mg/L
[2]; nTR driven by 35S promoter, 5 days
  magnitude of induction of GUS: 26 to 76 fold
[2]; nTR driven by HPPD and AHAS promoters
  maximum induction of GUS: 1.4 fold
[3]; cassettes carrying at least one MAR element, Doxy 5 mg/l
  maximum magnitude of induction (luciferase): 50 fold
[3]; cassettes without MAR element, Doxy 5 mg/l
  maximum magnitude of induction (luciferase): 80 fold
[3]; pACAG085 (TripleX/LUC), Doxy 5 mg/l, leaf disks, FIG. 10
  maximum induction (luciferase): 83 fold
[3]; pACAG113 and pACAG085 plants, FIG. 9
  highest induction in some lines (luciferase): 100 fold
[3]; pACAG113 and pACAG085 plants, leaf disks, FIG. 9
  average induction of the reporter (luciferase): 30 to 40 fold
[3]; pACAG113 cassette ((OCS)3TripleXmin/LUC), Doxy 5 mg/l, leaf disks, FIG. 10
  magnitude of induction for several lines (luciferase): higher than 100 fold
[3]; the other three cassettes with or without MAR, FIG. 13
  average induction of the reporter (luciferase): 30 to 40 fold
[3]; the other three cassettes, FIG. 13
  highest induction in some lines (luciferase): 100 fold
